The test system of experiment [1] is pyloric sphincter muscle. Kind of experiment: Organ bath physiology: EFS-evoked NO-dependent NANC relaxation of ex vivo pylori. Also noted: species or system mouse.
Experiment [2] relates to STZ-diabetic and NOD-diabetic mice. In words: Gastric emptying of phenol red-labeled liquid meal in diabetic mice. It counts as in vivo, mouse. As to conditions: for t½ for gastric emptying: 1 mg/kg intraperitoneal 20 minutes before; for gastric emptying (20% dextrose): NOD-diabetic and STZ-diabetic mice after 1 week of insulin treatment. As for the experimental part:
Animals. Mice were allowed free access to food and water except when fasted, as indicated for experiments. Wild-type mice (C57BL/6) were purchased from The Jackson Laboratory (Bar Harbor, Me., USA). nNOS^−/− mice were obtained following targeted genomic deletion of nNOS (15) and have the genetic background of C57BL/6 mice (28). For STZ-induced diabetes, adult male mice (C57BL/6) were injected intraperitoneally with a single dose of STZ (200 mg/kg in 0.1 M sodium citrate) as described elsewhere (29), whereas control mice were injected with an equal volume of vehicle (sodium citrate). STZ-treated mice were used for experiments 8 weeks after STZ injection. […]; Boehringer Mannheim, Indianapolis, Ind., USA). The average serum glucose levels for wild-type animals and the STZ diabetic mice 8 weeks after injection were 99 mg/dL and 388 mg/dL, respectively (Table 1). Adult male nonobese diabetic (NOD/LtJ [NOD]) mice were obtained at 8-10 weeks of age (The Jackson Laboratory). Serum glucose levels were also monitored weekly with the Accu-Check monitor. NOD-prediabetic mice and NOD-diabetic mice had average serum glucose levels of 88 mg/dL and 232 mg/dL, respectively (Table 1). For the indicated experiments, NOD-prediabetic mice were sacrificed at 10 weeks of age after serum glucose levels were confirmed, whereas NOD-diabetic mice were sacrificed at 30-32 weeks of age after elevated serum glucose levels were confirmed.
(§1) Insulin treatment was given using LinBit, a sustained-release insulin implant (0.1 U/d/implant; LinShin Canada Inc., Toronto, Ontario, Canada). After brief anesthesia with diethyl echer, the insulin implant was quickly immersed in Betadine solution (McKesson, San Francisco, Calif., USA) and implanted subcutaneously with a 12-gauge needle. Serum glucose levels were monitored, and insulin-treated animals were used for experiments after 12 hours or 1 week of insulin therapy, as indicated. The serum glucose levels after 1 week of insulin treatment are shown (Table 1), as are the serum glucose levels after 12 hours of insulin treatment (see FIG. 2b).
As indicated, insulin-treated diabetic mice were treated with the nNOS inhibitor 7-nitroindazole (7-NI; Lancaster, Wyndham, N.H., USA) by two intraperitoneal injections (50 mg/kg) of a suspension in sesame oil (Sigma Chemical Co., St. Louis, Miss., USA) given 24 hours and 30 minutes before determination of gastric emptying. […] For all experiments, control animals were similarly injected with vehicle (either sesame oil or water).
Gastric emptying. Gastric emptying of liquids was determined as described previously (30). For any experiments using diabetic mice, serum glucose levels of all animals were confirmed immediately before monitoring gastric emptying. Adult mice were sedated briefly (<30 seconds) with diethyl ether. Mice fully recovered from sedation in less than 1 minute. During brief sedation, oral-gastric intubation was accomplished with a 21-gauge needle fitted with a thin plastic catheter (8 cm in length). Then, 0.2 mL of 1 mg/mL phenol red-labeled 20% dextrose (or other solution, if indicated) was instilled into the stomach. Mice were placed in clean, empty cages until the time of sacrifice. At the indicated time (0-120 minutes), mice were rapidly sacrificed by cervical dislocation and the stomach was excised. The duodenum was ligated, followed by transverse resection of the lower esophagus, and the stomach was removed from the body cavity. Excised stomachs were homogenized with a polytron (Brinkmann, Westbury, N.Y., USA) homogenizer in 3 mL of 95% ethyl alcohol. After centrifugation (40,000 g for 20 minutes), an aliquot of the supernatant was used to determine phenol red content. Standard curve was constructed and found to be linear over the range of 1-20 microgram of phenol red. Phenol red content was monitored at 410 nm, at which a single peak of absorbance was observed when extracted with ethanol. […]

For experiment [3], the system named is nNOS mRNA. In words: In situ hybridization of nNOS mRNA in pyloric myenteric neurons. The class given is in vivo, mouse. Conditions: NOD-diabetic and STZ-diabetic mice, insulin treatment (1 week). The method, then: as §1
In situ hybridization. In situ hybridization for nNOS was performed as described previously (31,32).

For experiment [4], the system named is nNOS. Kind of experiment: Western blot analysis of nNOS protein expression in intestinal tissues. It counts as in vivo, mouse. Conditions: NOD-diabetic mice, insulin treatment (1 week). As for the experimental part:
as §1
Western blot analysis. Mouse tissues were homogenized in ice-cold buffer containing 50 mM Tris (pH 7.4, 25° C.), 100 mM NaCl, 1 mM EGTA, and protease inhibitors (4 microgram/mL leupeptin, 2 microgram/mL antipain, 2 microgram/mL pepstatin, and 1 mM PMSF). After centrifugatin (1.5 minutes, 16,000 g), the supernatants were collected and protein content was determined (Coomassie protein assay; Pierce Chemical Co., Rockville, Ill., USA). Samples (50 microgram protein) were subjected to SDS-PAGE (4-12% gradient gel; Bis-tris NuPage; Novex, San Diego, Calif., USA) and then transferred to PVDF membranes (Immobilon-P; Millipore Corp., Bedford, Mass., USA). […]

Experiment [5] deals with nNOS. In words: Immunohistochemistry of nNOS protein expression in pyloric myenteric neurons. Conditions: NOD-diabetic and STZ-diabetic mice, insulin treatment (1 week). It counts as in vivo, mouse. The method, then:
as §1
Immunohistochemistry. For nondiabetic studies, wild-type animals or 10-week-old NOD-prediabetic animals were used. For diabetic studies, we used animals 8 weeks after STZ injection (STZ diabetic) or 30-week-old NOD mice (NOD-diabetic). Pylori or other tissues were dissected and immediately imbedded (Tissue-Tek OCT 4583; Sakura Finetek Inc., Torrence, Calif., USA) and placed in dry ice and allowed to freeze. Routine sections (10 micrometer) were cut using a cryostat (−19° C.; Leica Microm, Allendale, N.J., USA). For immunostaining, slides were fixed for 5 minutes in 4.0% paraformaldehyde, washed in PBS, and permeablized with 0.1% Triton X-100 in PBS. […]

Where [6] appears, read: wild-type pylori precontracted with 0.1 micromolar SP, inhibitor 0.1 mM.

“Also recorded” adds a separate entry of the source. Where two headings read alike, the source gives them in different places.

As to `O=[N+]([O-])c1cccc2cn[nH]c12` [Compound 7-NI, 7-nitroindazole], in experiment [1] (pylori of insulin-treated diabetic mice, in the presence of 0.1 mM 7-NI), the NANC relaxation entry was “completely blocked”. Also, the “EFS-evoked NANC relaxation” value in experiment [1] (setting [6]) is given as “blocked”. Moreover, in experiment [2] (insulin-treated (1 week) STZ-diabetic and NOD-diabetic mice, 7-NI 50 mg/kg intraperitoneal, 24 hours and 30 minutes before), the “gastric emptying at 30 minutes” value is on record as “reverses the restoration of normal gastric emptying; also recorded: delays gastric emptying”.

In the case of `CCCc1nn(C)c2c(=O)[nH]c(-c3cc(S(=O)(=O)N4CCN(C)CC4)ccc3OCC)nc12` [sildenafil, 5-[2-ethoxy-5-(4-methylpiperazin-1-ylsulphonyl)phenyl]-1-methyl-3-n-propyl-1,6-dihydro-7H-pyrazolo[4,3d]pyrimidin-7-one], the “effect on delayed gastric emptying” value in experiment [2] (STZ-diabetic and NOD-diabetic mice, sildenafil 1 mg/kg) is “reverses the delayed gastric emptying; also recorded: reveres delayed gastric emptying”. In addition, the “t½ for gastric emptying” value in experiment [2] (sildenafil-treated NOD-diabetic mice) is 36 min; in experiment [2] (sildenafil-treated STZ-diabetic mice), 30 min.

Turning to `NC(=NCCC[C@H](N)C(=O)O)N[N+](=O)[O-]` [L-NNA, N-nitro-[.-arginine], the “EFS-evoked NANC relaxation” value in experiment [1] (setting [6]) is given as “blocked”.

As to retrodotoxin [TTX], the “EFS-evoked NANC relaxation” value in experiment [1] is “completely blocked”.

As to insulin, the “nNOS mRNA expression in pylori” value in experiment [3] was “substantially restores”. Also, the “EFS-evoked NANC relaxation” value is recorded as “partially restores NANC relaxation” in experiment [1] (pylori of NOD-diabetic mice after insulin treatment (1 week)) and “restores NANC relaxation” in experiment [1] (pylori of STZ-diabetic mice after insulin treatment (1 week)). The “gastric emptying (20% dextrose)” value in experiment [2] is given as “restored to normal”; in experiment [2] (listed as Insulin), “reverses delayed gastric emptying”. In addition, the “t½ of gastric emptying” value in experiment [2] (STZ-diabetic mice after insulin treatment for 12 hours (subcutaneous implant), sham STZ-diabetic 60, wild-type 36) stood at 54 min. Further, the “nNOS protein expression (Western blot) in intestinal regions” value is “fully reversible” in experiment [4] and “completely reverses the loss of nNOS protein” in experiment [4] (listed as Insulin). The “nNOS protein expression in pyloric myenteric neurons” value in experiment [5] was “reverse the loss of nNOS expression; also recorded: near normal levels”.

Source of the values: US6774128B2, “Methods for prevention and treatment of gastrointestinal disorders” (Johns Hopkins University, priority 2000, dated 2004).
